Assay: Solubility in water according to USP and EP
Type: physicochemical
From the text: wherein melatonin is complexed with adenosine and glycine. Adenosine is a purine nucleoside consisting of adenine attached to a ribofuranose moiety via a β-N9-glycosidic bond and the low-chain amino acid glycine is a C2 amino acid having a single hydrogen atom as its side chain.

- Solubility in water, Results: 0.1 mg/1.0 ml
Structure (SMILES): COc1ccc2[nH]cc(CCNC(C)=O)c2c1 [melatonin, N-acetyl-5-methoxytryptamine]

From patent US11684623B2, “Soluble melatonin tripartate adduct for the prevention and treatment of rare and severe eye sight-threatening conditions and neuro-ophthalmic disorders” (WORPHMED SRL, priority 2020, dated 2023)
